Values quoted from earlier work in US7232830B2, “Method for treatment of neurodegenerative diseases and effects of aging” (priority 1998, dated 2007).
Structures can show the parent of a compound that is named as a salt.

Assays:
[1] = system: histamine metabolism in the mouse brain
MAO-B = molecular target: T1, MAO-B (Rattus norvegicus, UniProt P19643); conditions: in vitro, rat brain
T1 construct: in vitro on monoamine oxidase activity in the rat brain; host or cells: rat brain
T1 sequence (P19643 1-520): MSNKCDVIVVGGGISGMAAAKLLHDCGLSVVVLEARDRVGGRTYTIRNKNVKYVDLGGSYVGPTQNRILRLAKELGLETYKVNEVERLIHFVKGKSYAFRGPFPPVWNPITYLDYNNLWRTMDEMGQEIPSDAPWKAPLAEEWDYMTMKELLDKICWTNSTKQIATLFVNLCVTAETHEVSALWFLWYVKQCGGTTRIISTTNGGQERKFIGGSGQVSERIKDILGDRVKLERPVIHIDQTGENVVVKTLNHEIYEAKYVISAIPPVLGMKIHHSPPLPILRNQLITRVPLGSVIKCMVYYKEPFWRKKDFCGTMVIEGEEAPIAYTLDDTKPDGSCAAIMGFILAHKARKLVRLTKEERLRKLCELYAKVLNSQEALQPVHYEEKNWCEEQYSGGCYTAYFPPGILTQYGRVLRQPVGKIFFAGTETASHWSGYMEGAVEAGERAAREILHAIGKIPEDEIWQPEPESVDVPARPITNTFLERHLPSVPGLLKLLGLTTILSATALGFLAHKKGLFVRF

Compound	effect on a histidine decarboxylase inhibitor [1]	effect on histamine increase induced by a histamine N-methyltransferase inhibitor [1]	effect on MAO-B (MAO-B)
COC(=O)[C@H]1[C@H]2C[C@@H]3c4[nH]c5cc(OC)ccc5c4CCN3C[C@H]2C[C@@H](OC(=O)c2cc(OC)c(OC)c(OC)c2)[C@@H]1OC [reserpine]	no significant affect	inhibited the histamine increase	
S=C(NC1CCCCC1)N1CCC(c2cnc[nH]2)CC1 [thioperamide maleate]			inhibits MAO-B
